Results published in publication PMC6277767, “Broad and Region-Specific Impacts of the Synthetic Cannabinoid CP 55,940 in Adolescent and Adult Female Mouse Brains” (Frontiers in Molecular Neuroscience, 2018).

Tested on: CD1 female mouse brain lipidome
Assay: Brain-region lipid levels (HPLC/MS/MS lipidomics) 2 h after single i.p. 3 mg/kg CP 55,940 vs vehicle
Assay type: in vivo
Design: N-arachidonoyl phenylalanine level, Mean / N-stearoyl tryptophan level, Mean / N-stearoyl proline level, Mean / N-stearoyl leucine level, Mean / N-stearoyl phenylalanine level, Mean / N-stearoyl serine level, Mean / N-stearoyl methionine level, Mean: unit: moles per gram
Experimental: The Bloomington Institutional Animal Care and Use Committee of Indiana University reviewed and approved the animal procedures. Female mice from the CD1 strain were utilized to match our study examining THC’s effects on the brain lipidome ([Leishman et al., 2018]). Mice were given a single i.p. injection of either 3 mg/kg CP or 1:1:18 cremophor:ethanol:saline vehicle (please refer to the section “3 mg/kg CP Is Relevant for Synthetic Cannabinoid Abuse and Has Stronger Effects on the Female Mouse Brain Lipidome During Adolescence” for a justification of dose and use of female mice). Three different age groups were given injections: PND 35 and PND 50 adolescents, and adult mice (PND 113). At least eight mice in each age group received CP and at least eight received vehicle. Matching the THC study time course ([Leishman et al., 2018]), mice were sacrificed via rapid decapitation 2 h after injection. Brains were immediately removed and flash-frozen in liquid nitrogen, and then stored at -80°C until dissections were performed. Brains were dissected on an ice-cold dissection plate into the following regions: STR, HIPP, CER, THAL, CTX, HYP, MID, and STEM. These abbreviations for these brain areas will be used exclusively when discussing the results generated by these specific dissections. Each dissected area was immediately placed in liquid nitrogen and then stored at -80°C until used for lipid extraction.
Tissue extracts were performed as previously described ([Bradshaw et al., 2006]; [Stuart et al., 2013]; [Raboune et al., 2014]; [Leishman et al., 2016a],[b], [2017], [2018]). First, samples were shock frozen in liquid nitrogen, weighed, and transferred to a centrifuge tube. The mass of the largest sample was multiplied by 50 to determine how many milliliters of HPLC-grade methanol (Fisher, Fair Lawn, NJ, United States) to add. Then, samples were spiked with 500 pmol deuterium-labeled NAGly (d8NAGly; Cayman Chemical, Ann Arbor, MI, United States). Samples were placed on ice in darkness for 2 h then individually homogenized and centrifuged at 19,000 × g for 20 min at 20°C. Supernatants were diluted with HPLC water (purified in house) to make a solution of 75% water, 25% supernatant. Lipids were partially purified on C18 solid phase extraction columns (Agilent, Palo Alto, CA, United States). A series of four elutions with 1.5 mL of 60%, 75%, 85%, and 100% methanol were collected ([Stuart et al., 2013]; [Leishman et al., 2016a],[b], [2018]).
As previously described ([Bradshaw et al., 2006]; [Tan et al., 2006]; [Smoum et al., 2010]; [Stuart et al., 2013]; [Tortoriello et al., 2013]; [Raboune et al., 2014]; [Leishman et al., 2016a],[b], [2017], [2018]), samples were analyzed using an Applied Biosystems API 3000 triple quadrupole mass spectrometer with electrospray ionization (Foster City, CA, United States). Using an Agilent XDB-C18 reversed phase analytical column and optimized mobile phase gradients, 20 μL from each elution were chromatographed. Two Shimadzu 10ADvp pumps (Columbia, MD, United States) provided the pressure for gradient elution. Mobile phase A: 20% methanol, 80% water (v/v) and 1 mM ammonium acetate (Sigma, St. Louis, MO, United States). Mobile phase B: 100% methanol, 1 mM ammonium acetate. Every method run began with 0% mobile phase B, reached 100% mobile phase B flowing at 0.2 mL/min, and gradually returned to 0% mobile phase B.
This screening library will be referred to as the lipidome when discussing data from this study. HPLC/MS/MS data were analyzed using Analyst software (Applied Biosystems) ([Bradshaw et al., 2006]; [Tan et al., 2006]; [Stuart et al., 2013]; [Tortoriello et al., 2013]; [Raboune et al., 2014]; [Leishman et al., 2016a],[b], [2017], [2018]). Chromatograms (Supplementary Figure 3) were generated by determining the retention time of analytes from the analytical column with a [M-1] or [M+1] parent peak and a fragmentation peak corresponding to the programmed values. […]

[1] = adult hypothalamus, 3mg/kg CP 55,940, p .001
[2] = adult hypothalamus, 3mg/kg CP 55,940, p .002
[3] = adult hypothalamus, 3mg/kg CP 55,940, p .005
[4] = adult hypothalamus, 3mg/kg CP 55,940, p .020
[5] = adult hypothalamus, 3mg/kg CP 55,940, p .036
[6] = adult hypothalamus, 3mg/kg CP 55,940, p .060
[7] = adult hypothalamus, 3mg/kg CP 55,940, p .073
[8] = adult midbrain, 3mg/kg CP 55,940
[9] = adult midbrain, 3mg/kg CP 55,940, p .000
[10] = adult midbrain, 3mg/kg CP 55,940, p .003
[11] = adult midbrain, 3mg/kg CP 55,940, p .023

## CCCCCCC(C)(C)c1ccc([C@@H]2C[C@H](O)CC[C@H]2CCCO)c(O)c1 [CP 55,940]
Adult hypothalamus, 3 mg/kg CP 55,940
  THC level, Mean: BDL
[1]
  PGF2α Direction (relative to Veh): ↓
  PGF2α Magnitude (x Veh level): 0.79
[2]
  phosphoLEA Direction (relative to Veh): ↓
  phosphoLEA Magnitude (x Veh level): 0.74
[3]
  6-ketoPGF1α Direction (relative to Veh): ↓
  6-ketoPGF1α Magnitude (x Veh level): 0.61
[4]
  N-palmitoyl phenylalanine Direction (relative to Veh): ↑
  N-palmitoyl phenylalanine Magnitude (x Veh level): 1.86
[5]
  PGE2 Direction (relative to Veh): ↑
  PGE2 Magnitude (x Veh level): 1.18
[6]
  N-arachidonoyl taurine Direction (relative to Veh): ↑
  N-arachidonoyl taurine Magnitude (x Veh level): 1.24
[7]
  N-arachidonoyl GABA Direction (relative to Veh): ↓
  N-arachidonoyl GABA Magnitude (x Veh level): 0.83
[8]
  2-arachidonoyl glycerol level, Mean: 3.47E-09
  2-linoleoyl glycerol level, Mean: 3.28E-10
  2-oleoyl glycerol level, Mean: 4.34E-09
  2-palmitoyl glycerol level, Mean: 8.64E-11
  6-ketoPGF1α level, Mean: 3.28E-11
  11-OH-THC level, Mean: BDL
  11-nor-9-carboxyTHC level, Mean: BDL
  Arachidonic acid level, Mean: 5.39E-10
  Cannabidiol level, Mean: BDL
  Linoleic acid level, Mean: 2.55E-10
  N- stearoyl valine level, Mean: 3.08E-14
  N-arachidonoyl GABA level, Mean: 2.05E-11
  N-arachidonoyl alanine level, Mean: 8.5E-13
  N-arachidonoyl dopamine level, Mean: BDL
  N-arachidonoyl ethanolamine level, Mean: 1.42E-11
  N-arachidonoyl glycine level, Mean: 7.94E-13
  N-arachidonoyl phenylalanine level, Mean: 2.39E-13
  N-arachidonoyl proline level, Mean: BDL
  N-arachidonoyl serine level, Mean: 4.34E-13
  N-arachidonoyl taurine level, Mean: 5.5E-11
  N-arachidonoyl tryptophan level, Mean: BDL
  N-arachidonoyl tyrosine level, Mean: 1.09E-12
  N-docosahexaenoyl GABA level, Mean: 8.66E-12
  N-docosahexaenoyl ethanolamine level, Mean: 3.34E-11
  N-docosahexaenoyl glycine level, Mean: 1.02E-13
  N-docosahexaenoyl methionine level, Mean: BDL
  N-docosahexaenoyl phenylalanine level, Mean: 1.11E-13
  N-docosahexaenoyl proline level, Mean: BDL
  N-docosahexaenoyl tryptophan level, Mean: BDL
  N-linoleoyl alanine level, Mean: 4.8E-13
  N-linoleoyl ethanolamine level, Mean: 1.5E-11
  N-linoleoyl glycine level, Mean: 4.47E-14
  N-linoleoyl methionine level, Mean: BDL
  N-linoleoyl proline level, Mean: BDL
  N-linoleoyl serine level, Mean: 2.09E-11
  N-linoleoyl tryptophan level, Mean: BDL
  N-linoleoyl tyrosine level, Mean: BDL
  N-nervonoyl valine level, Mean: BDL
  N-oleoyl GABA level, Mean: 1.69E-11
  N-oleoyl alanine level, Mean: 2.56E-12
  N-oleoyl dopamine level, Mean: BDL
  N-oleoyl ethanolamine level, Mean: 3.41E-10
  N-oleoyl glycine level, Mean: 4.95E-13
  N-oleoyl leucine level, Mean: 1.1E-12
  N-oleoyl phenylalanine level, Mean: 1.49E-12
  N-oleoyl proline level, Mean: BDL
  N-oleoyl serine level, Mean: 1.28E-10
  N-oleoyl tryptophan level, Mean: BDL
  N-oleoyl tyrosine level, Mean: 7.3E-13
  N-oleoyl valine level, Mean: 2.38E-14
  N-palmitoyl GABA level, Mean: 2.91E-11
  N-palmitoyl alanine level, Mean: 1.61E-12
  N-palmitoyl ethanolamine level, Mean: 6.9E-11
  N-palmitoyl glycine level, Mean: 1.85E-12
  N-palmitoyl leucine level, Mean: 2.19E-12
  N-palmitoyl methionine level, Mean: 2.91E-12
  N-palmitoyl phenylalanine level, Mean: 1.17E-12
  N-palmitoyl proline level, Mean: BDL
  N-palmitoyl tryptophan level, Mean: BDL
  N-palmitoyl tyrosine level, Mean: 1.01E-12
  N-palmitoyl valine level, Mean: 1.76E-13
  N-stearoyl GABA level, Mean: 1.9E-11
  N-stearoyl alanine level, Mean: 2.08E-12
  N-stearoyl ethanolamine level, Mean: 1.35E-11
  N-stearoyl glycine level, Mean: 2.96E-12
  N-stearoyl leucine level, Mean: 1.09E-12
  N-stearoyl methionine level, Mean: 4.14E-13
  N-stearoyl phenylalanine level, Mean: 7.89E-13
  N-stearoyl proline level, Mean: BDL
  N-stearoyl serine level, Mean: 1.92E-11
  N-stearoyl tryptophan level, Mean: BDL
  Oleic acid level, Mean: 4.73E-10
  PGE2 level, Mean: 2.39E-10
  PhosphoLEA level, Mean: 2.38E-11
  THC level, Mean: BDL
[9]
  2-arachidonoyl glycerol, Direction (relative to Veh): ↓
  2-arachidonoyl glycerol, Magnitude (x Veh level): 0.80
  2-oleoyl glycerol, Direction (relative to Veh): ↓
  2-oleoyl glycerol, Magnitude (x Veh level): 0.74
  Arachidonic acid, Direction (relative to Veh): ↓
  Arachidonic acid, Magnitude (x Veh level): 0.78
[10]
  2-linoleoyl glycerol Direction (relative to Veh): ↓
  2-linoleoyl glycerol Magnitude (x Veh level): 0.77
  phosphoLEA Direction (relative to Veh): ↓
  phosphoLEA Magnitude (x Veh level): 0.70
[11]
  N-palmitoyl ethanolamine, Direction (relative to Veh): ↓
  N-palmitoyl ethanolamine, Magnitude (x Veh level): 0.82
